This passage reports TGI and GI50 results from PubChem BioAssay (NCI).

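All cell lines were grown in 96-well plates and treated with compound for 48 hours. GI50: concentration for 50% inhibition of growth. The concentration for full growth arrest is given as TGI.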

Some test systems named below: ACHN renal; CCRF-CEM leukemia; COLO 205 colon; K-562 leukemia; M14 melanoma; MDA-N; NCI-H23 lung; NCI-H522 lung; OVCAR-8 ovarian; PC-3 prostate; RPMI-8226 leukemia; SF-268 CNS; SK-MEL-2 melanoma.
Assay in all cases: DTP human tumour cell line panel, 48 h

As to `CC(=O)NC1C(O)C(O)C(CO)OC1n1ncc(=O)[nH]c1=O` (stereo not drawn), the TGI with ACHN renal, in the assay with CCRF-CEM leukemia, in the assay on COLO 205 colon, in the assay with K-562 leukemia, with M14 melanoma and in the assay on MDA-N was more than 100 µM throughout. The TGI in the assay with NCI-H23 lung, in the assay on NCI-H522 lung, with OVCAR-8 ovarian, in the assay on PC-3 prostate, in the assay on RPMI-8226 leukemia and in the assay on SF-268 CNS was more than 100 µM throughout. Further, the TGI with SK-MEL-2 melanoma was more than 100 µM.
On to `O=C1c2ccccc2C2=Nc3ccncc3CN12`, for which the TGI with ACHN renal, with CCRF-CEM leukemia, in the assay with COLO 205 colon, in the assay with K-562 leukemia, with M14 melanoma and in the assay with MDA-N was more than 100 µM each time. Besides, the TGI with NCI-H23 lung, with NCI-H522 lung, with OVCAR-8 ovarian, with PC-3 prostate, in the assay on RPMI-8226 leukemia and with SF-268 CNS was more than 100 µM throughout. In the assay on SK-MEL-2 melanoma, the TGI is more than 100 µM.
Consider `COc1cccc2c(Nc3ccc(S(=O)(=O)NC(C)=O)cc3)c3ccc([N+](=O)[O-])cc3nc12`, for which the TGI in the assay on ACHN renal is more than 100 µM; in the assay with CCRF-CEM leukemia it was more than 100 µM; with COLO 205 colon, more than 95.7 µM; in the assay with K-562 leukemia, more than 84.7 µM; in the assay with M14 melanoma, more than 100 µM; in the assay with MDA-N, more than 100 µM. The TGI in the assay with NCI-H23 lung is more than 100 µM; in the assay on NCI-H522 lung it was more than 100 µM; in the assay with OVCAR-8 ovarian it was more than 100 µM; in the assay on PC-3 prostate, more than 100 µM; in the assay with RPMI-8226 leukemia it was more than 100 µM; in the assay with SF-268 CNS, more than 93.7 µM. The TGI in the assay on SK-MEL-2 melanoma is more than 100 µM.
Consider `Cc1cc(NCCCCCCCCCC[n+]2c(C)cc(N)c3ccccc32)c2ccccc2n1`, for which the TGI with ACHN renal came out at 10.1 µM; with CCRF-CEM leukemia it was 7.43 µM; in the assay on COLO 205 colon it was 1.22 µM; with K-562 leukemia, 2.36 µM; in the assay on M14 melanoma it was 12 µM; with MDA-N it was 3.61 µM. For the same molecule, the TGI in the assay on NCI-H23 lung is 6.54 µM; in the assay on NCI-H522 lung, more than 100 µM; with OVCAR-8 ovarian it was 15.8 µM; in the assay with PC-3 prostate it was 13.7 µM; with RPMI-8226 leukemia, 2.28 µM; in the assay with SF-268 CNS, more than 39 µM. The same molecule displayed a TGI in the assay on SK-MEL-2 melanoma of 7.29 µM.
On to `CC(=O)OC1COC(n2c(-c3ccc(Cl)cc3)cc(-c3ccccc3)c(C#N)c2=S)C(OC(C)=O)C1OC(C)=O` (stereo not drawn), for which the TGI in the assay on ACHN renal is more than 31.6 µM; in the assay on CCRF-CEM leukemia, more than 86.1 µM; with COLO 205 colon, more than 64.2 µM; with K-562 leukemia it was more than 59.8 µM; in the assay with M14 melanoma it was more than 31.6 µM; with MDA-N it was more than 100 µM. The TGI in the assay with NCI-H23 lung is 28.3 µM; with NCI-H522 lung, more than 100 µM; in the assay on OVCAR-8 ovarian, 21.6 µM; in the assay with PC-3 prostate, 46.3 µM; in the assay on RPMI-8226 leukemia, more than 100 µM; in the assay with SF-268 CNS it was more than 39.3 µM. Further, the TGI in the assay on SK-MEL-2 melanoma is 29.4 µM.
As for `O=c1c2cccnc2cc(-c2ccccc2)n1CCO`, the TGI in the assay with ACHN renal, with CCRF-CEM leukemia, in the assay on COLO 205 colon, in the assay on K-562 leukemia, in the assay on M14 melanoma and in the assay with MDA-N was more than 100 µM throughout. In addition, the TGI in the assay with NCI-H23 lung, in the assay with NCI-H522 lung, in the assay on OVCAR-8 ovarian, with PC-3 prostate, in the assay on RPMI-8226 leukemia and in the assay on SF-268 CNS was more than 100 µM in each case. In addition, in the assay on SK-MEL-2 melanoma, the TGI was more than 100 µM.
Consider `CC1(C)CCCCCCC2OC2CCCCCC(C)(C)C1=O` (stereo not drawn), for which the TGI in the assay with ACHN renal is more than 65 µM; with CCRF-CEM leukemia, more than 69.4 µM; in the assay on COLO 205 colon it was 29.5 µM; with K-562 leukemia it was more than 82.6 µM; in the assay with M14 melanoma it was more than 100 µM; in the assay with MDA-N, more than 100 µM. The TGI is more than 100 µM in the assay on NCI-H23 lung; more than 80.4 µM in the assay on NCI-H522 lung; more than 100 µM in the assay on OVCAR-8 ovarian; more than 94.6 µM in the assay on PC-3 prostate; more than 95 µM in the assay with RPMI-8226 leukemia; more than 100 µM in the assay on SF-268 CNS. Besides, the total growth inhibition concentration (TGI) with SK-MEL-2 melanoma is more than 65.4 µM.
With `COc1c2ccccc2c(OC)c2nc(C)ccc12`, the TGI with ACHN renal is more than 100 µM; with CCRF-CEM leukemia it was 71.6 µM; in the assay on COLO 205 colon it was more than 96.7 µM; in the assay with K-562 leukemia, more than 78.6 µM; in the assay with M14 melanoma it was more than 100 µM; in the assay with MDA-N it was more than 100 µM. Further, the TGI with NCI-H23 lung, in the assay on NCI-H522 lung, with OVCAR-8 ovarian, with PC-3 prostate, in the assay with RPMI-8226 leukemia and with SF-268 CNS was more than 100 µM throughout. The molecule further showed a TGI in the assay on SK-MEL-2 melanoma of more than 100 µM.
In the case of `COc1cc(C2c3cc4c(cc3OC(Nc3ccccc3)C2C)OCO4)cc(OC)c1OC` (stereo not drawn), the TGI is more than 61.4 µM in the assay with ACHN renal; more than 19.9 µM with CCRF-CEM leukemia; 14.5 µM in the assay on COLO 205 colon; more than 100 µM in the assay with K-562 leukemia; more than 86.5 µM in the assay on M14 melanoma; 0.784 µM in the assay on MDA-N. Also, the TGI in the assay with NCI-H23 lung was more than 100 µM; in the assay with NCI-H522 lung, 2.04 µM; in the assay on OVCAR-8 ovarian, more than 31.6 µM; in the assay with PC-3 prostate, more than 100 µM; in the assay with RPMI-8226 leukemia, more than 100 µM; in the assay with SF-268 CNS, more than 100 µM. In the assay with SK-MEL-2 melanoma, the TGI was more than 100 µM.
As to `Cc1cccc(C)c1NC(=S)NC=C(C(N)=O)C(N)=O`, the TGI in the assay on ACHN renal, with CCRF-CEM leukemia, in the assay with COLO 205 colon, in the assay with K-562 leukemia, with M14 melanoma and with MDA-N was more than 100 µM throughout. For the same molecule, the TGI in the assay with NCI-H23 lung, in the assay with NCI-H522 lung, in the assay on OVCAR-8 ovarian, in the assay with PC-3 prostate, in the assay on RPMI-8226 leukemia and in the assay with SF-268 CNS was more than 100 µM in each case. Besides, the TGI in the assay with SK-MEL-2 melanoma is more than 100 µM.
As to `O=C(O)c1ccc2c(c1)CC1(C2)Cc2ccccc2C1=O` (stereo not drawn), the TGI in the assay with ACHN renal, in the assay with CCRF-CEM leukemia, in the assay on COLO 205 colon, in the assay on K-562 leukemia, in the assay with M14 melanoma and in the assay on MDA-N was more than 100 µM each time. Besides, the TGI in the assay on NCI-H23 lung, in the assay on NCI-H522 lung, in the assay with OVCAR-8 ovarian, in the assay on PC-3 prostate, in the assay on RPMI-8226 leukemia and with SF-268 CNS was more than 100 µM in each case. In the assay with SK-MEL-2 melanoma, this molecule yielded a TGI of more than 100 µM.
In the case of `CCCCCCCCCCCCC(O)C1CCC(C(O)CCCCCCC(O)CCCCCCCC2=CC(C)OC2=O)O1` (stereo not drawn), the GI50 was 18.9 µM in the assay with ACHN renal; 15.4 µM in the assay with CCRF-CEM leukemia; 13.3 µM with NCI-H23 lung; 2.05 µM in the assay on RPMI-8226 leukemia; 41.2 µM in the assay with SF-268 CNS. The TGI in the assay with ACHN renal is more than 100 µM; in the assay with CCRF-CEM leukemia, 79.9 µM; in the assay with COLO 205 colon, 44.2 µM; with K-562 leukemia it was 40.6 µM; in the assay on M14 melanoma, 45.7 µM; in the assay on MDA-N, 71.7 µM. Also, the TGI with NCI-H23 lung was more than 100 µM; with NCI-H522 lung, 56.9 µM; with OVCAR-8 ovarian, more than 100 µM; in the assay on PC-3 prostate, 90.7 µM; in the assay with RPMI-8226 leukemia it was 22.3 µM; in the assay on SF-268 CNS, more than 100 µM. This molecule also gave a TGI in the assay on SK-MEL-2 melanoma of 61.1 µM.
As for `C=C(Br)CN(C(C)=O)C1CCCCC1`, the TGI with ACHN renal, in the assay on CCRF-CEM leukemia, in the assay on COLO 205 colon, with K-562 leukemia, with M14 melanoma and in the assay on MDA-N was more than 100 µM each time. The TGI in the assay with NCI-H23 lung, with NCI-H522 lung, in the assay with OVCAR-8 ovarian, with PC-3 prostate, in the assay on RPMI-8226 leukemia and in the assay on SF-268 CNS was more than 100 µM in each case. For the same molecule, the TGI in the assay on SK-MEL-2 melanoma was more than 100 µM.
For the molecule `Fc1ccccc1-c1nn2c(C34CC5CC(CC(C5)C3)C4)nnc2s1`, the TGI in the assay on ACHN renal, in the assay with CCRF-CEM leukemia, with COLO 205 colon, in the assay on K-562 leukemia, with M14 melanoma and in the assay on MDA-N was more than 100 µM throughout. In addition, the TGI in the assay on NCI-H23 lung, in the assay with NCI-H522 lung, in the assay with OVCAR-8 ovarian, with PC-3 prostate, with RPMI-8226 leukemia and in the assay on SF-268 CNS was more than 100 µM in each case. In addition, the TGI with SK-MEL-2 melanoma was more than 100 µM.
`c1ccc(Nc2nnc(Cn3ccc4ccccc43)s2)cc1`: the TGI with ACHN renal, with CCRF-CEM leukemia, with COLO 205 colon, in the assay with K-562 leukemia, with M14 melanoma and in the assay with MDA-N was more than 100 µM in each case. The TGI in the assay with NCI-H23 lung, in the assay on NCI-H522 lung, in the assay on OVCAR-8 ovarian, with PC-3 prostate, in the assay on RPMI-8226 leukemia and in the assay on SF-268 CNS was more than 100 µM throughout. In the assay on SK-MEL-2 melanoma, this molecule returned a TGI of more than 100 µM.
For the molecule `COc1ccc(/C=C2\CCCCCC2=O)cc1`, the TGI in the assay with ACHN renal, in the assay with CCRF-CEM leukemia, in the assay on COLO 205 colon, in the assay on K-562 leukemia, with M14 melanoma and with MDA-N was more than 100 µM each time. Also, the TGI with NCI-H23 lung, in the assay with NCI-H522 lung, with OVCAR-8 ovarian, in the assay with PC-3 prostate, with RPMI-8226 leukemia and in the assay with SF-268 CNS was more than 100 µM each time. For the same molecule, in the assay on SK-MEL-2 melanoma, the TGI was more than 100 µM.

By TGI is commonly meant the concentration at which net growth stops. Low readings indicate more potent growth arrest, high ones less potent growth arrest. What is called GI50 is the concentration at which growth is held to half of that of the control.
